Data: patent US7517857B2, “Immune-modulating peptide” (POSCO, priority 2002, dated 2009)
Where a SMILES comes first, the peptide text is derived from it. Where no end group is shown, it is not given here. [ ]: non-standard residue; d: D form.

Legend:
Type in all cases: cell-based
FPR = biological target: T1, FPR (Homo sapiens, UniProt P21462); assay: [Ca2+]i increase in FPR-expressing RBL-2H3 cells (fura-2); settings: for EC50 (nM), intracellular calcium increase: fura-2 loaded
T1 construct: expressed in transfected cells; host or cells: RBL-2H3 (rat basophilic leukemia) cells, G418-selected
T1 sequence (P21462 1-350): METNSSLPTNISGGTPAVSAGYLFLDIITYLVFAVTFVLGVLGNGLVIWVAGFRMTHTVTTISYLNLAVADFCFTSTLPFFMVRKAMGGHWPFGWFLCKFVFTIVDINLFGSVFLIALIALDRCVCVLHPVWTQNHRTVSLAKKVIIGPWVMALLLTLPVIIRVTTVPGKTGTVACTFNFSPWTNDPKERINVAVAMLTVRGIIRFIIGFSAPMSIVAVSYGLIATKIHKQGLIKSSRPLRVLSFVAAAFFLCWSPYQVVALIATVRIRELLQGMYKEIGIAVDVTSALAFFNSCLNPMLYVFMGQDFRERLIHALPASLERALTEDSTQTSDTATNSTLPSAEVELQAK

FPRL1 [1] = biological target: T2, FPRL1 (Homo sapiens, UniProt P25090); assay: [Ca2+]i increase in FPRL1-expressing RBL-2H3 cells (fura-2); settings: for EC50: fura-2 loaded, read-out: EC50 (nM), intracellular calcium increase
T2 construct: expressed in transfected cells; host or cells: RBL-2H3 (rat basophilic leukemia) cells, G418-selected
T2 sequence (P25090 1-351): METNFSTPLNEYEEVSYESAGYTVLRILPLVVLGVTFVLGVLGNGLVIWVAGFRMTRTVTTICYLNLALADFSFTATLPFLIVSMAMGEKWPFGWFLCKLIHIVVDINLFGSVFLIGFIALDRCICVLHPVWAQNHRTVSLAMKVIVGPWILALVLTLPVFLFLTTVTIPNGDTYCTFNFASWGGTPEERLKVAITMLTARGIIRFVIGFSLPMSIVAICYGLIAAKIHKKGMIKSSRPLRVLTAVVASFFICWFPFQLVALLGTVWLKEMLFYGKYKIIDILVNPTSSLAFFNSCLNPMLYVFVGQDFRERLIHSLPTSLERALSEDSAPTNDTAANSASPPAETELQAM
Procedure: […] The level of [Ca^2+]i was determined fluorometrically by Grynkiewicz's method using fura-2/AM (15). Briefly, prepared cells were incubated with 3 μM fura-2/AM at 37° C. for 50 min in a fresh serum-free RPMI 1640 medium under continuous stirring. 2×10^6 cells were aliquoted for each assay in Ca^2+-free Locke's solution (154 mM NaCl, 5.6 mM KCl, 1.2 mM MgCl2, 5 mM HEPES, pH 7.3, 10 mM glucose, and 0.2 mM EGTA). Fluorescence changes at the dual excitation wavelengths of 340 nm and 380 nm and the emission wavelength of 500 nm were measured, and the calibrated fluorescence ratio was translated into [Ca^2+]i. The peak level of the increased [Ca^2+]i was monitored.
[…] The level of [Ca^2+]i was determined by the same procedures as above. The peak level of the increased [Ca^2+]i was monitored.

human neutrophils = assay: Superoxide generation in human neutrophils (cytochrome c reduction); settings: for superoxide generation: 10 μM concentration; for O^2− (nmol/10^6 cells), superoxide generation: cytochrome c reduction
Procedure: Peripheral blood leukocyte concentrates were donated by the Ulsan Red Cross Blood Center (Ulsan, Korea). Human neutrophils were isolated according to the standard procedures of dextran sedimentation, hypotonic lysis of erythrocytes, and a lymphocyte separation medium gradient as described above (9). The isolated human neutrophils were then used promptly.
The activity of the peptides, WKYMVm, peptides of SEQ ID NOs: 1 to 24, and wkymvm on superoxide generation in human neutrophils was measured. Superoxide anion generation was quantified by measuring reduction of cytochrome c using a microtiter 96-well plate ELISA reader (Bio-Tekinstruments, EL312e, Winooski, Vt.) as described (14). The human neutrophils (1×10^6 cells/100 μl of RPMI 1640 medium per well of a 96-well plate) were preincubated with 50 μM cytochrome c at 37° C. for 1 min and then incubated with the indicated concentrations of peptides. The superoxide generation was measured as a change in light absorption at 550 nm over 5 minutes at 1 min intervals. From at least four independent experiments, peptides with active amino acids at each position were chosen.

FPRL1 [2] = biological target: T2, FPRL1; assay: Exocytosis: β-hexosaminidase secretion in FPRL1-expressing RBL-2H3 cells; settings: FPRL1 cells; 10 μM of each peptide (WKYMVm also various concentrations)
Procedure: Granule secretion is one of the most important function of mast cells (20). The effect of WKYMVm on granule secretion was checked by measuring β-hexosaminidase secretion as described above (18). Briefly, RBL-2H3 cells (2×10^5/well) expressing FPR or FPRL1 were cultured overnight in a 24-well tissue culture plate. The cells were washed twice with Tyrode's buffer (137 mM NaCl, 12 mM NaHCO3, 5.6 mM glucose, 2.7 mM KCl, 1 mM CaCl2, 0.5 mM MgCl2, 0.4 mM NaH2PO4, 0.1g/100 ml BSA, and 25 mM HEPES, pH 7.4) and stimulated with each peptide. Various concentrations of WKYMVm were treated in FPR- or FPRL1-expressing RBL-2H3 cells (FIG. 5A). 1 μM of WKYMVm was used to stimulate two cell lines in the absence or presence of 10 μM BAPTA/AM (FIG. 5B). The reaction was terminated 20 min after stimulation by placing the plate on ice. Secretion of β-hexosaminidase into the medium was determined by incubating 50 μl of supernatant or cell lysate with 25 μl of 5 mM p-nitrophenyl-N-acetyl-β-D-glucosamide in 0.1 M sodium citrate buffer (pH 3.8) at 37° C. for 2 hr. At the end of the incubation, 50 μl of 0.4 M Na2CO3 were added. Absorbance was monitored at 405 nm. Data are means ±S.E. of a single representative of three experiments performed in triplicate. Values (means ±S.E.) were expressed as a percent of total β-hexosaminidase present in the cells.
10 μM of each peptide was treated in FPR- (FIG. 6A) or FPRL1-expressing RBL-2H3 cells (FIG. 6B). The peptide-induced secretion of β-hexosaminidase was determined as above. Data are means ±S.E. of a single representative of three experiments performed in triplicate.

Compound	EC50 (nM), intracellular calcium increase (FPR)	EC50 (FPRL1 [1])	[Ca^2+]i increasing activity (FPRL1 [1])	superoxide generating activity (human neutrophils; 100 nM of peptides)	superoxide generation (human neutrophils)	O^2− (nmol/10^6 cells), superoxide generation (human neutrophils; peptide 100 nM)	O^2− (nmol/10^6 cells), superoxide generation (human neutrophils; peptide 10 μM)	[Ca^2+]i increasing activity (FPR)	granule secretion / β-hexosaminidase release (words) (FPRL1 [2])
CSCC[C@H](NC(=O)[C@H](Cc1ccc(O)cc1)NC(=O)[C@@H](N)CCCCN)C(=O)N[C@H](C(N)=O)C(C)C [KYMV-NH2, Lys-Tyr-Met-Val-NH2] (H-KYMV-NH2)	inactive	> 30000 nM	–	–	–	–	–	–	–
CSCC[C@H](N)C(=O)N[C@H](C(=O)N[C@H](CCSC)C(N)=O)C(C)C [MVm-NH2, Met-Val-D-Met-NH2] (H-Met-Val-[dM]-NH2)	inactive	> 30000 nM	–	–	–	–	–	–	–
CSCC[C@H](NC(=O)[C@H](Cc1ccccc1)NC(=O)[C@H](CCCCN)NC(=O)[C@@H](N)Cc1c[nH]c2ccccc12)C(=O)N[C@H](C(=O)N[C@H](CCSC)C(N)=O)C(C)C [WKFMVm-NH2, Trp-Lys-Phe-Met-Val-D-Met-NH2] (H-WKFMV[dM]-NH2; N-terminus assumed)	–	–	higher affinity to FPRL1	stimulated superoxide generation	more potent activity than WKYMVm	37.3 ± 3.56 nmol/10^6 cells	60.2 ± 5.57 nmol/10^6 cells	more improved affinity for the FPR against the peptide WKYMVm	–
CSCC[C@H](NC(=O)[C@H](Cc1c[nH]c2ccccc12)NC(=O)[C@H](CCCCN)NC(=O)[C@@H](N)Cc1c[nH]c2ccccc12)C(=O)N[C@H](C(=O)N[C@H](CCSC)C(N)=O)C(C)C [WKWMVm-NH2, Trp-Lys-Trp-Met-Val-D-Met-NH2] (H-WKWMV[dM]-NH2; N-terminus assumed)	–	–	higher affinity to FPRL1	–	more potent activity than WKYMVm	11.5 ± 0.97 nmol/10^6 cells	65.0 ± 12.10 nmol/10^6 cells	more improved affinity for the FPR against the peptide WKYMVm	–
CSCC[C@H](NC(=O)[C@H](Cc1ccc(O)cc1)NC(=O)[C@H](CCCCN)NC(=O)[C@@H](N)Cc1c[nH]c2ccccc12)C(=O)NCC(=O)N[C@H](CCSC)C(N)=O [WKYMGm-NH2, Trp-Lys-Tyr-Met-Gly-D-Met-NH2] (H-WKYMG[dM]-NH2; N-terminus assumed)	inactive	–	showed [Ca^2+]i-increasing activity in FPRL1 cells, with a little lower affinity to FPRL1	–	–	1.1 ± 0.05 nmol/10^6 cells	27.3 ± 2.61 nmol/10^6 cells	did not effect a [Ca^2+]i increase until 20 μM treatment	–
CSCC[C@H](NC=O)C(=O)N[C@@H](CC(C)C)C(=O)N[C@@H](Cc1ccccc1)C(=O)O [fMLF, N-formyl-methionyl-leucyl-phenylalanine]	–	–	–	–	–	–	–	–	but not fMLF or wkymvm, stimulated granule secretion
Trp-Lys-Tyr-Met-(Phe/Trp)-D-Met-NH2 [WKYM(F/W)m-NH2]	–	–	higher affinity to FPRL1	–	–	6.1 ± 0.77 nmol/10^6 cells	45.6 ± 7.76 nmol/10^6 cells	–	–

The next lines start with results.

EC50 (nM), intracellular calcium increase (FPR)	EC50 (FPRL1 [1])	[Ca^2+]i increasing activity (FPRL1 [1])	Compound	superoxide generating activity (human neutrophils; 100 nM of peptides)	superoxide generation (human neutrophils)	O^2− (nmol/10^6 cells), superoxide generation (human neutrophils; peptide 100 nM)	O^2− (nmol/10^6 cells), superoxide generation (human neutrophils; peptide 10 μM)	[Ca^2+]i increasing activity (FPR)	granule secretion / β-hexosaminidase release (words) (FPRL1 [2])
–	–	higher affinity to FPRL1	CSCC[C@H](NC(=O)[C@H](Cc1ccc(O)cc1)NC(=O)[C@H](CCCCN)NC(=O)[C@@H](N)Cc1c[nH]c2ccccc12)C(=O)N[C@@H](Cc1ccc(O)cc1)C(=O)N[C@H](CCSC)C(N)=O [WKYMYm-NH2, Trp-Lys-Tyr-Met-Tyr-D-Met-NH2] (H-WKYMY[dM]-NH2; N-terminus assumed)	–	–	25.8 ± 3.89 nmol/10^6 cells	42.9 ± 3.34 nmol/10^6 cells	–	–
inactive	–	–	WKYMVV-NH2 [WKYMVV-NH2, Trp-Lys-Tyr-Met-Val-Val-NH2]	–	–	5.0 ± 0.21 nmol/10^6 cells	36.3 ± 2.29 nmol/10^6 cells	–	–
inactive	–	–	WKYMVW-NH2 [WKYMVW-NH2, Trp-Lys-Tyr-Met-Val-Trp-NH2]	–	more potent activity than WKYMVm	11.5 ± 1.62 nmol/10^6 cells	56.8 ± 4.60 nmol/10^6 cells	–	–
